Data from patent EP4230620A1, “SUBSTITUTED N-AMINO-N-BENZOIC ACID URACILS, THEIR SALTS AND USE OF SAID COMPOUNDS AS HERBICIDAL AGENTS” (Bayer Aktiengesellschaft, priority 2022, dated 2023).

Legend:
Type in all cases: in vivo
Lolium rigidum = assay: Post-emergence herbicidal action in greenhouse against LOLRI; conditions: 20 g/ha; post-emergence spray, 600 l/ha water; visual rating after ca. 3 weeks vs untreated controls; 100% = plants dead, 0% = like control plants
From the text: (§1) Biologische Beispiele: • Die folgenden Abkürzungen werden für die in den folgenden Tabellen aufgeführten Kultur- und Schadpflanzen verwendet: ABUTH: Abutilon theophrasti ALOMY: Alopecurus myosuroides AMARE: Amaranthus retroflexus BRSNS: Brassica napus DIGSA: Digitaria sanguinalis ECHCG: Echinochloa crus-galli GLXMA: Glycine max KCHSC: Kochia scoparia LOLRI: Lolium rigidum MATIN: Matricaria inodora ORYZA: Oryza sativa PHPBU: Pharbitis purpurea POLCO: Polygonum convolvulus SETVI: Setaria viridis VERPE: Veronica persica VIOTR: Viola tricolor TRZAS: Triticum aestivum ZEAMX: Zea mays • A. Herbizide Wirkung im Nachauflauf
(§2) Samen von mono- bzw. dikotylen Unkrautpflanzen wurden in Kunststoff- oder Holzfasertöpfen in sandigem Lehmboden ausgelegt, mit Erde abgedeckt und im Gewächshaus unter kontrollierten Wachstumsbedingungen angezogen. 2 bis 3 Wochen nach der Aussaat wurden die Versuchspflanzen im Einblattstadium behandelt. Die in Form von benetzbaren Pulvern (WP) oder als Emulsionskonzentrate (EC) formulierten erfindungsgemäßen Verbindungen wurden dann als wässrige Suspension bzw. Emulsion unter Zusatz von 0,5% Additiv mit einer Wasseraufwandmenge von umgerechnet 600 l/ha auf die grünen Pflanzenteile gesprüht. Nach ca. 3 Wochen Standzeit der Versuchspflanzen im Gewächshaus, unter optimalen Wachstumsbedingungen, wurde die Wirkung der Präparate visuell im Vergleich zu unbehandelten Kontrollen bonitiert. Beispielsweise bedeutet 100% Wirkung = Pflanzen sind abgestorben, 0% Wirkung = wie Kontrollpflanzen.
(§3) In den nachstehenden Tabellen A1 bis A11 sind die Wirkungen ausgewählter Verbindungen der allgemeinen Formel (I) gemäß der Tabelle 1 auf verschiedene Schadpflanzen und einer Aufwandmenge entsprechend 20 g/ha und niedriger, die gemäß zuvor genannter Versuchsvorschrift erhalten wurden, dargestellt. Tabelle A1a: Nachauflaufwirkung bei 1,25 g/ha gegen ABUTH in %

Alopecurus myosuroides = assay: Post-emergence herbicidal action in greenhouse against ALOMY; conditions: post-emergence spray, 600 l/ha water, visual rating after ca. 3 weeks vs untreated controls, 100% = plants dead, 0% = like control plants
From the text: as §1, §2, §3

Amaranthus retroflexus = assay: Post-emergence herbicidal action in greenhouse against AMARE; conditions: post-emergence spray, 600 l/ha water, visual rating after ca. 3 weeks vs untreated controls, 100% = plants dead, 0% = like control plants
From the text: as §1, §2, §3

Digitaria sanguinalis = assay: Post-emergence herbicidal action in greenhouse against DIGSA; conditions: visual rating after ca. 3 weeks
From the text: as §1, §2, §3

Oryza sativa = assay: Post-emergence action on crop plants in greenhouse, ORYZA; conditions: 1,25 g/ha, crop plant, visual rating after ca. 3 weeks, 100% = plants dead, 0% = like control plants
From the text: as §1
as §2, with “Kulturpflanzen” for “Unkrautpflanzen”
as §3, with “B1” for “A1”, “B4” for “A11”, “Kulturpflanzen” for “Schadpflanzen”, “B1a:” for “A1a:”, “ZEAMX” for “ABUTH”

Setaria viridis = assay: Post-emergence herbicidal action in greenhouse against SETVI; conditions: visual rating after ca. 3 weeks
From the text: as §1, §2, §3

Polygonum convolvulus = assay: Post-emergence herbicidal action in greenhouse against POLCO; conditions: visual rating after ca. 3 weeks
From the text: as §1, §2, §3

Veronica persica = assay: Post-emergence herbicidal action in greenhouse against VERPE; conditions: visual rating after ca. 3 weeks
From the text: as §1, §2, §3

Matricaria inodora = assay: Post-emergence herbicidal action in greenhouse against MATIN; conditions: visual rating after ca. 3 weeks
From the text: as §1, §2, §3

Zea mays = assay: Post-emergence action on crop plants in greenhouse, ZEAMX; conditions: crop plant, 100% = plants dead, 0% = like control plants
From the text: as §1
as §2, with “Kulturpflanzen” for “Unkrautpflanzen”
as §3, with “B1” for “A1”, “B4” for “A11”, “Kulturpflanzen” for “Schadpflanzen”, “B1a:” for “A1a:”, “ZEAMX” for “ABUTH”

Pharbitis purpurea = assay: Post-emergence herbicidal action in greenhouse against PHBPU; conditions: visual rating after ca. 3 weeks
From the text: as §1, §2, §3

Triticum aestivum = assay: Post-emergence action on crop plants in greenhouse, TRZAS; conditions: crop plant, visual rating after ca. 3 weeks, 100% = plants dead, 0% = like control plants
From the text: as §1
as §2, with “Kulturpflanzen” for “Unkrautpflanzen”
as §3, with “B1” for “A1”, “B4” for “A11”, “Kulturpflanzen” for “Schadpflanzen”, “B1a:” for “A1a:”, “ZEAMX” for “ABUTH”

Abutilon theophrasti = assay: Post-emergence herbicidal action in greenhouse against ABUTH; conditions: post-emergence spray, 600 l/ha water, visual rating after ca. 3 weeks vs untreated controls, 100% = plants dead, 0% = like control plants
From the text: as §1, §2, §3

Viola tricolor = assay: Post-emergence herbicidal action in greenhouse against VIOTR; conditions: visual rating after ca. 3 weeks
From the text: as §1, §2, §3

[1] = 1,25 g/ha, post-emergence, visual rating after ca. 3 weeks

Nachauflaufwirkung gegen ORYZA (Oryza sativa)	Nachauflaufwirkung gegen TRZAS (Triticum aestivum; 1,25 g/ha)	Nachauflaufwirkung gegen TRZAS (Triticum aestivum; 5 g/ha)	SMILES	Nachauflaufwirkung gegen ALOMY (Alopecurus myosuroides; 20 g/ha)	Nachauflaufwirkung gegen AMARE (Amaranthus retroflexus; 1,25 g/ha)	Nachauflaufwirkung gegen AMARE (Amaranthus retroflexus; 5 g/ha)	Nachauflaufwirkung gegen AMARE (Amaranthus retroflexus; 20 g/ha)	Nachauflaufwirkung gegen DIGSA (Digitaria sanguinalis; 5 g/ha)	Nachauflaufwirkung gegen DIGSA (Digitaria sanguinalis; 20 g/ha)	Nachauflaufwirkung gegen SETVI (Setaria viridis; 1,25 g/ha)	Nachauflaufwirkung gegen SETVI (Setaria viridis; 5 g/ha)	Nachauflaufwirkung gegen SETVI (Setaria viridis; 20 g/ha)	Nachauflaufwirkung gegen POLCO (Polygonum convolvulus; 20 g/ha)	Nachauflaufwirkung gegen VERPE (Veronica persica; 5 g/ha)	Nachauflaufwirkung gegen VERPE (Veronica persica; 20 g/ha)	Nachauflaufwirkung gegen MATIN (Matricaria inodora; 5 g/ha)	Nachauflaufwirkung gegen MATIN (Matricaria inodora; 20 g/ha)	Nachauflaufwirkung gegen PHBPU (Pharbitis purpurea; 1,25 g/ha)	Nachauflaufwirkung gegen PHBPU (Pharbitis purpurea; 5 g/ha)	Nachauflaufwirkung gegen PHBPU (Pharbitis purpurea; 20 g/ha)	also measured
0%	0%	0%	CC(C)=NOC(=O)C(C)(C)OC(=O)c1cc(-n2c(=O)cc(C(F)(F)F)n(N)c2=O)c(F)cc1Cl [I.1-491]	100%	100%	100%	100%	100%	100%	100%	100%	100%	100%	100%	100%	100%	100%	100%	100%	100%	Nachauflaufwirkung gegen LOLRI (Lolium rigidum): 80%; Nachauflaufwirkung gegen ZEAMX (Zea mays; [1]): 20%; Nachauflaufwirkung gegen ABUTH (Abutilon theophrasti; 1,25 g/ha): 100%; Nachauflaufwirkung gegen ABUTH (Abutilon theophrasti; 5 g/ha): 100%; Nachauflaufwirkung gegen ABUTH (Abutilon theophrasti; 20 g/ha): 100%; Nachauflaufwirkung gegen VIOTR (Viola tricolor; 1,25 g/ha): 80%; Nachauflaufwirkung gegen VIOTR (Viola tricolor; 5 g/ha): 100%; Nachauflaufwirkung gegen VIOTR (Viola tricolor; 20 g/ha): 100%
0%	0%	0%	C=CCOC(=O)C(C)(C)OC(=O)c1cc(-n2c(=O)cc(C(F)(F)F)n(N)c2=O)ccc1Cl [I.2-471]	80%	100%	100%	100%	100%	100%	100%	100%	100%	100%	100%	100%	90%	100%	100%	100%	100%	Nachauflaufwirkung gegen VERPE (Veronica persica; 1,25 g/ha): 100%; Nachauflaufwirkung gegen ZEAMX (Zea mays; [1]): 20%; Nachauflaufwirkung gegen ZEAMX (Zea mays; 5 g/ha, post-emergence spray, 600 l/ha water, visual rating after ca. 3 weeks vs untreated controls): 20%; Nachauflaufwirkung gegen TRZAS (Triticum aestivum; 20 g/ha): 10%; Nachauflaufwirkung gegen ABUTH (Abutilon theophrasti; 1,25 g/ha): 90%; Nachauflaufwirkung gegen ABUTH (Abutilon theophrasti; 5 g/ha): 100%; Nachauflaufwirkung gegen ABUTH (Abutilon theophrasti; 20 g/ha): 100%; Nachauflaufwirkung gegen VIOTR (Viola tricolor; 1,25 g/ha): 100%; Nachauflaufwirkung gegen VIOTR (Viola tricolor; 5 g/ha): 100%; Nachauflaufwirkung gegen VIOTR (Viola tricolor; 20 g/ha): 100%
0%	0%	10%	CC(C)(OC(=O)c1cc(-n2c(=O)cc(C(F)(F)F)n(N)c2=O)c(F)cc1Cl)C(=O)OCc1ccccn1 [I.1-286]	90%	100%	100%	100%	100%	100%	100%	100%	100%	100%	100%	100%	90%	100%	100%	100%	100%	Nachauflaufwirkung gegen LOLRI (Lolium rigidum): 90%; Nachauflaufwirkung gegen POLCO (Polygonum convolvulus; 5 g/ha): 100%; Nachauflaufwirkung gegen VERPE (Veronica persica; 1,25 g/ha): 100%; Nachauflaufwirkung gegen ZEAMX (Zea mays; [1]): 20%; Nachauflaufwirkung gegen ABUTH (Abutilon theophrasti; 1,25 g/ha): 90%; Nachauflaufwirkung gegen ABUTH (Abutilon theophrasti; 5 g/ha): 100%; Nachauflaufwirkung gegen ABUTH (Abutilon theophrasti; 20 g/ha): 100%; Nachauflaufwirkung gegen VIOTR (Viola tricolor; 1,25 g/ha): 90%; Nachauflaufwirkung gegen VIOTR (Viola tricolor; 5 g/ha): 100%; Nachauflaufwirkung gegen VIOTR (Viola tricolor; 20 g/ha): 100%
0%	0%	0%	COCCOC(=O)C(C)(C)OC(=O)c1cc(-n2c(=O)cc(C(F)(F)F)n(N)c2=O)c(F)cc1Cl [I.1-1]	90%	100%	100%	100%	100%	100%	100%	100%	100%	100%	100%	100%	100%	100%	100%	100%	100%	Nachauflaufwirkung gegen LOLRI (Lolium rigidum): 90%; Nachauflaufwirkung gegen ALOMY (Alopecurus myosuroides; 5 g/ha): 80%; Nachauflaufwirkung gegen POLCO (Polygonum convolvulus; 5 g/ha): 100%; Nachauflaufwirkung gegen VERPE (Veronica persica; 1,25 g/ha): 100%; Nachauflaufwirkung gegen ZEAMX (Zea mays; [1]): 0%; Nachauflaufwirkung gegen ABUTH (Abutilon theophrasti; 1,25 g/ha): 90%; Nachauflaufwirkung gegen ABUTH (Abutilon theophrasti; 5 g/ha): 100%; Nachauflaufwirkung gegen ABUTH (Abutilon theophrasti; 20 g/ha): 100%; Nachauflaufwirkung gegen VIOTR (Viola tricolor; 1,25 g/ha): 80%; Nachauflaufwirkung gegen VIOTR (Viola tricolor; 5 g/ha): 100%; Nachauflaufwirkung gegen VIOTR (Viola tricolor; 20 g/ha): 100%
20%	0%	20%	CC(C)(OC(=O)c1cc(-n2c(=O)cc(C(F)(F)F)n(N)c2=O)c(F)cc1Cl)C(=O)OCC#N [I.1-176, 1-(Cyanmethoxy)-2-methyl-1-oxopropan-2-yl-5-[3-amino-2,6-dioxo-4-(trifluormethyl)-3,6-dihydropyrimidin-1(2H)-yl]-2-chlor-4-fluorbenzoat]	100%	100%	100%	100%	100%	100%	100%	100%	100%	100%	100%	100%	100%	100%	90%	100%	100%	Nachauflaufwirkung gegen LOLRI (Lolium rigidum): 80%; Nachauflaufwirkung gegen POLCO (Polygonum convolvulus; 5 g/ha): 100%; Nachauflaufwirkung gegen VERPE (Veronica persica; 1,25 g/ha): 80%; Nachauflaufwirkung gegen ABUTH (Abutilon theophrasti; 1,25 g/ha): 100%; Nachauflaufwirkung gegen ABUTH (Abutilon theophrasti; 5 g/ha): 100%; Nachauflaufwirkung gegen ABUTH (Abutilon theophrasti; 20 g/ha): 100%; Nachauflaufwirkung gegen VIOTR (Viola tricolor; 1,25 g/ha): 90%; Nachauflaufwirkung gegen VIOTR (Viola tricolor; 5 g/ha): 100%; Nachauflaufwirkung gegen VIOTR (Viola tricolor; 20 g/ha): 100%
